Test results published in US4912119A, “Imidazolylguanidine derivatives and compositions containing these compounds” (Heumann Pharma GmBH & Co., priority 1986, dated 1990).
Structures can show the parent of a compound that is named as a salt.

Legend:
[1] = biological target: T1, histamine-H2 receptors (Cavia porcellus, UniProt P47747); test: H2-agonistic activity, isolated guinea-pig atrium (method of van Rossum, cumulative dose-response curves); assay type: biochemical; details: read-out: pD2 -value (Atrium) (converted)
T1 construct: determined on isolated atrium and ileum of guinea-pig; from tissue; host or cells: isolated guinea-pig atrium
Excerpt: (§1) The compounds according to this invention are distinguished by a novel, hitherto unknown and undescribed pharmacological overall activity. The new class of structure according to this invention has both a H1 -antagonistic active component and an H2 -agonistic component. These manifest the pharmacological results shown below. One recognized method of determining the H1 -antagonistic activity is the determination of the pA2 -values in vitro (O. Arunlakshana and H. O. Schild, (1959), "Some Quantitative Uses of Drug Antagonists", Br. J. Pharmac. Chemother, 14, 48-58). To determine the H2 -agonistic activity (pD2 -values), the method of J. M. van Rossum, (1963) is employed, described in "Cumulative Dose-Response Curves II. Technique for the Making of Dose-Response Curves in Isolated Organs and the Evaluation of Drug Parameters", Arch. Intern. Pharmacodyn. Therap. 143, 299-307. |(determined on isolated atrium and ileum of guinea-pig)

[2] = biological target: T2, histamine H1 receptor (Cavia porcellus, UniProt P31389); test: H1-antagonistic activity in vitro, isolated guinea-pig ileum (method of Arunlakshana and Schild); assay type: biochemical; details: for Kb: read-out: pA2 -value (Ileum) (converted)
T2 construct: determined on isolated atrium and ileum of guinea-pig; from tissue; host or cells: isolated guinea-pig ileum
Excerpt: as §1

T2 sequence (P31389 whole entry): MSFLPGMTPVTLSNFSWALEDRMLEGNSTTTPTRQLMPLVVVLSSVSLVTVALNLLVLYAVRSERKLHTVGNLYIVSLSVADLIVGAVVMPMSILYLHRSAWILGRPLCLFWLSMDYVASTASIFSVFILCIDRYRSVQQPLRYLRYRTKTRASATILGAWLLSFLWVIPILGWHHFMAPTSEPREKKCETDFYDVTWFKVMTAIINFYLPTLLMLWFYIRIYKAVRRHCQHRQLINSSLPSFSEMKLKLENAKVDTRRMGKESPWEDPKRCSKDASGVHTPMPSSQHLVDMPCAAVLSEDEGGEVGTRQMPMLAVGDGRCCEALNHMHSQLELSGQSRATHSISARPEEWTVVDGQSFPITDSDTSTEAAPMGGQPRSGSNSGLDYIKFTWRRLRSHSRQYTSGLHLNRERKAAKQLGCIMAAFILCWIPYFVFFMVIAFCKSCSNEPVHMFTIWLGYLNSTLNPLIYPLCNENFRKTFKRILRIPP
T1 sequence (P47747 whole entry): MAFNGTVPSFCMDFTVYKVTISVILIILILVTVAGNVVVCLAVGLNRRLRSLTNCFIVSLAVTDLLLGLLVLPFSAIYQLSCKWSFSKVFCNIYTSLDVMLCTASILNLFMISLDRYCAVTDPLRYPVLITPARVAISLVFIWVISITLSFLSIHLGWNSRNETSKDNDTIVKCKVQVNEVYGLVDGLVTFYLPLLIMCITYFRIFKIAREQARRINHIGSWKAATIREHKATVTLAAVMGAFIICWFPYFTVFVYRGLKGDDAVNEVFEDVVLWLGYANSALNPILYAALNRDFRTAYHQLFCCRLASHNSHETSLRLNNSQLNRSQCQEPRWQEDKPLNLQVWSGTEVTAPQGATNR

An EC50 [1] of 112 nM and a Kb [2] of 309 nM were found for N=C(NCCCCc1ccccn1)NCCCc1c[nH]cn1 [Example 2, N^1-[3-(1H-Imidazol-4-yl)propyl]-N^2-[4-(pyridin-2-yl)butyl]-guanidine hydriodide] in this work.
An EC50 [1] of 2140 nM and a Kb [2] of 2.51 nM were found for N=C(NCCCc1c[nH]cn1)NCCCN(Cc1ccc(Cl)cc1)c1ccccn1 [Example 3, N^1-[3-(1H-Imidazol-4-yl)propyl]-N^2-[3-[N-(4-chlorobenzyl)-N-(pyridin-2-yl)amino]propyl]-guanidine hydriodide] in this work.
An EC50 [1] of 437 nM and a Kb [2] of 9.12 nM were found for N=C(NCCCc1c[nH]cn1)NCCN(Cc1cccs1)c1ccccn1 [Example 4, N^1-[3-(1H-Imidazol-4-yl)propyl]-N^2 [2-[N-(pyridin-2-yl)-N-(thiophen-2-yl-methyl)amino]ethyl]-guanidine hydriodide] in this work.
An EC50 [1] of 123 nM and a Kb [2] of 37.2 nM were found for CC(CCNC(=N)NCCCc1c[nH]cn1)(c1ccccc1)c1ccccc1 [Example 8, N^1-[3-(1H-Imidazol-4-yl)propyl]-N^2-(3,3-diphenylbutyl)-guanidine hydrochloride] in this work.
An EC50 [1] of 6.31 nM and a Kb [2] of 115 nM were found for N=C(NCCCc1c[nH]cn1)NCCC(c1ccc(Cl)c(Cl)c1)c1ccccn1 (centres unmarked) [Example 14, N^1-[3-(3,4-Dichlorophenyl)-3-(pyridin-2-yl)propyl]-N^2-[3-(1H-imidazol-4-yl)propyl]-guanidine] in this work.
An EC50 [1] of 13.8 nM and a Kb [2] of 112 nM were found for N=C(NCCCc1c[nH]cn1)NCCC(c1ccccn1)c1ccc(Cl)cc1Cl (centres unmarked) [Example 16, N^1-[3-(2,4-Dichlorophenyl)-3-(pyridin-2-yl)propyl]-N^2-[3-(1H-imidazol-4-yl)-propyl]-guanidine] in this work.
For NC(=NCCCc1c[nH]cn1)NCCC(c1ccc(F)c(F)c1)c1ccccn1 (centres unmarked) [Example 17, N^1-[3-(3,4-Difluorophenyl)-3-(pyridin-2-yl)propyl]-N^2-[3-(1H-imidazol-4-yl)propyl]-guanidine], the EC50 [1] was 7.59 nM and the “pA2 -value (Ileum)” value [2] was 7.07.
An EC50 [1] of 8.91 nM and a Kb [2] of 282 nM were found for N=C(NCCCc1c[nH]cn1)NCCC(c1cc(F)cc(F)c1)c1ccccn1 (centres unmarked) [Example 18, N^1-[3-(3,5-Difluorophenyl)-3-(pyridin-2-yl)propyl]-N^2-[3-(1H-imidazol-4-yl)propyl]-guanidine] in this work.
In the case of NC(=NCCCc1c[nH]cn1)NCCC(c1cccc(Cl)c1)c1ccccn1 (centres unmarked) [Example 20, N^1-[3-(3-Chlorophenyl)-3-(pyridin-2-yl)propyl]-N^2-[3-(1H-imidazol-4-yl)propyl]-guanidine], the EC50 [1] is reported as 11.5 nM and the “pA2 -value (Ileum)” value [2] is reported as 7.05.
For NC(=NCCCc1c[nH]cn1)NCCC(c1ccc(F)cc1)c1cccnc1 (centres unmarked) [Example 24, N^1-[3-(4-Fluorophenyl)-3-(pyridin-3-yl)propyl]-N^2-[3-(1H-imidazol-4-yl)-propyl]-guanidine], the EC50 [1] was 8.13 nM and the “pA2 -value (Ileum)” value [2] was 6.71.
